In patent publication US20250179078A1, “INHIBITORS OF NLRP3” (PTC THERAPEUTICS, INC., priority 2022, published 2025):

Target: T1, NLRP3 (Homo sapiens, UniProt Q96P20)
T1 construct: host or cells: THP-1 cells differentiated with PMA
Test: IL-1β Secretion Assay (NLRP3-dependent IL1β secretion in THP1 cells)
Format: cell-based
Details: PMA-differentiated THP-1 cells; compounds incubated 20 h; 2.5 μM Nigericin 3 h; HTRF IL-1β readout; read-out: IC50 IL-1β Inhibition
Experimental: Monocytic THP-1 cells (ATCC: TIB-202) were maintained in growth media consisting of RPMI 1640 medium (ThermoFisher, Cat #11875-085), 10% FBS (ThermoFisher) and 0.05 mM β-mercaptoethanol (ThermoFisher, Cat #21985-023), according to the provider's instructions. The cell concentration was adjusted to 7.5×10^5 cells/mL, and plated in complete growth media with a final concentration of 100 ng/mL phorbol 12-myristate 13-acetate (PMA, Sigma #P8139). Cells were seeded at 100 µL/well into a 96-well cell culture plate (ThermoFisher Cat #165305) and allowed to differentiate for 24 h in a cell culture incubator at 37° C. with 5% CO2. Cells were washed 1× with 100 ul PBS and replaced with fresh RPMI+5% FBS. Compounds were serial diluted in DMSO with 3 fold dilution for a total of 7 concentrations. Diluted compounds were added to the cells at a ratio of 1:200 and incubated for 20 h. The NLRP3 inflammasome was activated with the addition of 2.5 μM Nigericin (Sigma: Cat #SML1779-1 ml), for 3 h. After incubation, 15 μL of conditioned media was removed and assayed for levels of IL-1β using the HTRF IL-1β assay kit (Cisbio: Cat #62HIL1BPEH) as per the manufacturer's instructions.
Compounds, once produced and prepared according to the present invention, can be assessed in variety of assays to characterize their activities. For example, NLRP3-dependent IL1β secretion was evaluated in THP1 cells. IC50 values of IL1β inhibition were calculated from the plot of percentage of inhibition versus the inhibitor concentration by a logistics fit. TABLE I depict examples of compounds according to generic Formula I. Data which is <1 nM is listed as *****; data 1-10 nM is listed as ****; data 10-100 nM is listed as ***, data 100-300 nM is listed as **, data ≥300 nM is listed as *.

T1 sequence (Q96P20 whole entry): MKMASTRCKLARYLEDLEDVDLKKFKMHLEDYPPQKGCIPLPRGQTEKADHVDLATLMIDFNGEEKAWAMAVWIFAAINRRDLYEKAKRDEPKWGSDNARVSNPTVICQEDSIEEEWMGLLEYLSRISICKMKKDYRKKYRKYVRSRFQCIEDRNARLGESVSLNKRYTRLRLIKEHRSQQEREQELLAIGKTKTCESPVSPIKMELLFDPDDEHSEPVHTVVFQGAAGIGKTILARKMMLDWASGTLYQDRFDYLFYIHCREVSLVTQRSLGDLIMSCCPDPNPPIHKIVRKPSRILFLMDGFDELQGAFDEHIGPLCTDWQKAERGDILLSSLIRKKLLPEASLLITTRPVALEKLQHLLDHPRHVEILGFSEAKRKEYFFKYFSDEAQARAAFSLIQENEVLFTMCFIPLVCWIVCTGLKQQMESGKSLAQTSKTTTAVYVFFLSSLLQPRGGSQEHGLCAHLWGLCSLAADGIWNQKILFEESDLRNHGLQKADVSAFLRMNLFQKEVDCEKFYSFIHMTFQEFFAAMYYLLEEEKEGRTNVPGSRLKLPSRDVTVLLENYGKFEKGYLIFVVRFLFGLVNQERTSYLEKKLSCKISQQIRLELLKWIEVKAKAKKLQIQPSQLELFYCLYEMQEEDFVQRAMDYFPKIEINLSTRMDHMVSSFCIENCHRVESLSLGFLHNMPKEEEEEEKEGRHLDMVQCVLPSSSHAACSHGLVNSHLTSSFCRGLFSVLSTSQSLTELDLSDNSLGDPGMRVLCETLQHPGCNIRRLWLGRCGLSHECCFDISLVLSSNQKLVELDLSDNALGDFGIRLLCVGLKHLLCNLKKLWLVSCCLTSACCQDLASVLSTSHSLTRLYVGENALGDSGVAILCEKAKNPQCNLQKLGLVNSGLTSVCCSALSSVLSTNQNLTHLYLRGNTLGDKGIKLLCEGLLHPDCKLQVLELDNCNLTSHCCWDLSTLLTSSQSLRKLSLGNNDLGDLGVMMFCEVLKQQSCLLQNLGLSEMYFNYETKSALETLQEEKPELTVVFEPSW

| IC50 | Compound |
| --- | --- |
| 0.001 to 0.01 µM | COc1ccc(-c2nnc(N[C@@H]3CCC[C@H](O)C3)n3cncc23)c(CC(F)(F)F)c1 [Compound 302, (1S,3R)-3-({1-[4-methoxy-2-(2,2,2-trifluoroethyl)phenyl]imidazo[1,5-d][1,2,4]triazin-4-yl}amino)cyclohexan-1-ol] |
| 0.001 to 0.01 µM | CC(Nc1nnc(-c2ccc(C(F)(F)F)cc2CC(F)(F)F)c2cccn12)c1cccc(O)c1 (stereo not drawn) [Compound 96, 3-[1-({1-[2-(2,2,2-trifluoroethyl)-4-(trifluoromethyl)phenyl]pyrrolo[1,2-d][1,2,4]triazin-4-yl}amino)ethyl]phenol] |
| 0.01 to 0.1 µM | COc1ccc(-c2nnc(N[C@@H]3CCCN(C)C3)n3cccc23)c(C)c1 [Compound 26, 1-(4-methoxy-2-methylphenyl)-N-[(3R)-1-methylpiperidin-3-yl]pyrrolo[1,2-d][1,2,4]triazin-4-amine] |
| 0.001 to 0.01 µM | COc1ccc(-c2nnc(N[C@@H]3C[C@@H](F)CN(C)C3)n3cncc23)c(CC(F)(F)F)c1 [Compound 277, N-[(3R,5R)-5-fluoro-1-methylpiperidin-3-yl]-1-[4-methoxy-2-(2,2,2-trifluoroethyl)phenyl]imidazo[1,5-d][1,2,4]triazin-4-amine] |
| 0.01 to 0.1 µM | O[C@H]1CCOC[C@@H]1Nc1nnc(-c2ccc(C(F)(F)F)cc2CC(F)(F)F)c2cncn12 [Compound 400, (3S,4S)-3-({1-[2-(2,2,2-trifluoroethyl)-4-(trifluoromethyl)phenyl]imidazo[1,5-d][1,2,4]triazin-4-yl}amino)oxan-4-ol] |
| < 0.001 µM | COc1ccc(-c2nnc(N[C@@H]3CCCN(C)C3)n3cncc23)c(CC(F)(F)F)c1 [Compound 250, 1-[4-methoxy-2-(2,2,2-trifluoroethyl)phenyl]-N-[(3R)-1-methylpiperidin-3-yl]imidazo[1,5-d][1,2,4]triazin-4-amine] |
| < 0.001 µM | COc1ccc(-c2nnc(N[C@@H]3CCCN(CCO)C3)n3cccc23)c(OC(F)(F)F)c1 [Compound 61, 2-[(3R)-3-({1-[4-methoxy-2-(trifluoromethoxy)phenyl]pyrrolo[1,2-d][1,2,4]triazin-4-yl}amino)piperidin-1-yl]ethan-1-ol] |
| 0.001 to 0.01 µM | Cc1ccc(-c2nnc(N[C@@H]3CCCN(CCO)C3)n3cncc23)c(OC(F)F)c1 [Compound 184, 2-[(3R)-3-({1-[2-(difluoromethoxy)-4-methylphenyl]imidazo[1,5-d][1,2,4]triazin-4-yl}amino)piperidin-1-yl]ethan-1-ol] |
| 0.001 to 0.01 µM | COc1ccc(-c2nnc(N[C@@H]3CCCN(C)C3)n3cncc23)c(OC(F)F)c1 [Compound 216, 1-[2-(difluoromethoxy)-4-methoxyphenyl]-N-[(3R)-1-methylpiperidin-3-yl]imidazo[1,5-d][1,2,4]triazin-4-amine] |
| 0.01 to 0.1 µM | FC(F)Oc1ccc(-c2nnc(Nc3cc[nH]n3)n3cccc23)c(OC(F)(F)F)c1 [Compound 155, 1-[4-(difluoromethoxy)-2-(trifluoromethoxy)phenyl]-N-(1H-pyrazol-3-yl)pyrrolo[1,2-d][1,2,4]triazin-4-amine] |
| 0.001 to 0.01 µM | O[C@@H]1CCCC[C@H]1Nc1nnc(-c2ccc(Cl)cc2OC(F)(F)F)c2cncn12 [Compound 300, (1R,2R)-2-({1-[4-chloro-2-(trifluoromethoxy)phenyl]imidazo[1,5-d][1,2,4]triazin-4-yl}amino)cyclohexan-1-ol] |
| 0.01 to 0.1 µM | O=C1NCCC1Nc1nnc(-c2ccc(C(F)(F)F)cc2OC(F)(F)F)c2ccnn12 (stereo not drawn) [Compound 393, 3-({4-[2-(trifluoromethoxy)-4-(trifluoromethyl)phenyl]pyrazolo[1,5-d][1,2,4]triazin-7-yl}amino)pyrrolidin-2-one] |
| 0.001 to 0.01 µM | Cc1ccc(-c2nnc(N[C@@H]3CCCN(C)C3)n3cc(C)cc23)c(C(F)F)c1 [Compound 23, 1-[2-(difluoromethyl)-4-methylphenyl]-7-methyl-N-[(3R)-1-methylpiperidin-3-yl]pyrrolo[1,2-d][1,2,4]triazin-4-amine] |
| < 0.001 µM | COc1ccc(-c2nnc(N[C@@H]3CCCN(C)C3)n3cccc23)c(CC(F)(F)F)c1 [Compound 145, 1-[4-methoxy-2-(2,2,2-trifluoroethyl)phenyl]-N-[(3R)-1-methylpiperidin-3-yl]pyrrolo[1,2-d][1,2,4]triazin-4-amine] |

Second part, the compound before the results:

| Compound | IC50 |
| --- | --- |
| CN1CCC[C@@H](CNc2nnc(-c3ccc(C(F)(F)F)cc3CC(F)(F)F)c3cccn23)C1 [Compound 146, N-{[(3S)-1-methylpiperidin-3-yl]methyl}-1-[2-(2,2,2-trifluoroethyl)-4-(trifluoromethyl)phenyl]pyrrolo[1,2-d][1,2,4]triazin-4-amine] | 0.001 to 0.01 µM |
| COc1ccc(-c2nnc(N[C@H]3CCCC[C@]3(C)O)n3cccc23)c(OC(F)(F)F)c1 (single isomer, unassigned) [Compound 180] | 0.001 to 0.01 µM |
| OCCN1CCC[C@@H](Nc2nnc(-c3ccc(C(F)(F)F)cc3OC(F)(F)F)c3cncn23)C1 [Compound 239, 2-[(3R)-3-({1-[2-(trifluoromethoxy)-4-(trifluoromethyl)phenyl]imidazo[1,5-d][1,2,4]triazin-4-yl}amino)piperidin-1-yl]ethan-1-ol] | < 0.001 µM |
| COc1ccc(-c2nnc(Nc3cc[nH]n3)n3cncc23)c(OC(F)(F)F)c1 [Compound 220, 1-[4-methoxy-2-(trifluoromethoxy)phenyl]-N-(1H-pyrazol-3-yl)imidazo[1,5-d][1,2,4]triazin-4-amine] | 0.1 to 0.3 µM |
| Cc1ccc(-c2nnc(N[C@@H]3CCCN(CCO)C3)n3cncc23)c(OC(F)(F)F)c1 [Compound 355, 2-[(3R)-3-({1-[4-methyl-2-(trifluoromethoxy)phenyl]imidazo[1,5-d][1,2,4]triazin-4-yl}amino)piperidin-1-yl]ethan-1-ol] | 0.01 to 0.1 µM |
| COc1ccc(-c2nnc(N[C@@H]3CCCN(C)C3)n3cc(C)cc23)c(OC(F)F)c1 [Compound 12, 1-[2-(difluoromethoxy)-4-methoxyphenyl]-7-methyl-N-[(3R)-1-methylpiperidin-3-yl]pyrrolo[1,2-d][1,2,4]triazin-4-amine] | 0.001 to 0.01 µM |
| CCN1CCC[C@@H](Nc2nnc(-c3ccc(OC)cc3OC3CC3)c3cccn23)C1 [Compound 182, 1-[2-(cyclopropyloxy)-4-methoxyphenyl]-N-[(3R)-1-ethylpiperidin-3-yl]pyrrolo[1,2-d][1,2,4]triazin-4-amine] | 0.001 to 0.01 µM |
| CN1CCC[C@@H](Nc2nnc(-c3ccc(C4CC4)cc3OC(F)(F)F)c3cccn23)C1 [Compound 37, 1-[4-cyclopropyl-2-(trifluoromethoxy)phenyl]-N-[(3R)-1-methylpiperidin-3-yl]pyrrolo[1,2-d][1,2,4]triazin-4-amine] | < 0.001 µM |
| OCCN1CCC[C@@H](Nc2nnc(-c3ccc(C(F)(F)F)cc3OC(F)F)c3cncn23)C1 [Compound 186, 2-[(3R)-3-({1-[2-(difluoromethoxy)-4-(trifluoromethyl)phenyl]imidazo[1,5-d][1,2,4]triazin-4-yl}amino)piperidin-1-yl]ethan-1-ol] | < 0.001 µM |
| Cc1cc2c(-c3ccc(C(F)(F)F)cc3C(F)(F)F)nnc(N[C@H]3CCCC[C@@H]3O)n2c1 [Compound 132, (1S,2S)-2-({1-[2,4-bis(trifluoromethyl)phenyl]-7-methylpyrrolo[1,2-d][1,2,4]triazin-4-yl}amino)cyclohexan-1-ol] | 0.01 to 0.1 µM |
